For assay [1], the system named is MRSA ATCC BAA-44. As to the kind of experiment: Biofilm inhibition assay (crystal violet). Type of assay: cell-based, Staphylococcus aureus. Particulars: for IC50: MRSA ATCC BAA-44; for inhibition at 5 µM: MRSA ATCC BAA 44; for dose dependence of biofilm inhibition (in words): relative to MIC. As to the method: (§1) General Information. Methicillin-resistant Staphylococcus aureus (MRSA) strains were obtained from the Laboratory of Professor Christian Melander (NCSU) ATCC (33591, BAA 44, BAA 1685, BAA 1770, BAA 43 300) and colonies were grown on solid media as instructed. Mueller-Hinton broth (MHB, 211443-BD), tryptic soy broth (TSB, Remel: R455052) and D-glucose (CAS: 492-62-6) were purchased from Fisher Scientific. Tryptic soy agar (TSA, cat. #22091) and Linezolid (cat. # P70014) were purchased from Sigma-Aldrich. Bacteria for biofilm inhibition and dispersion assays were cultured overnight in TSBG (tryptic soy broth with 0.5% glucose supplement). All assays were run in duplicate and repeated at least two separate times for MIC assays and at least four separate times for biofilm inhibition and dispersion assays. All compounds were dissolved molecular biology grade DMSO as 100 mM stock solutions and further diluted to 10 and 1 mM stock solutions as needed. Optical densities were measured using a Thermo Scientific Genesys 20 spectrophotometer. Data for biofilm inhibition and dispersion assays was collected using a BioTek ELx808 Microplate Reader. All graphs were generated and analyzed using GraphPad Prism 7.
(§2) Biofilm Inhibition Assay. Studies were performed using the standard method described in S. A. Rogers and C. Melander, Angew Chem Int Ed, 2008, 47, 5229-5231. Briefly, biofilm inhibition assays were performed by taking an overnight culture of bacterial strain and subculturing it at an OD600 of 0.01 into the necessary growth liquid medium (LB for A. baumannii, LBNS for P. aeruginosa, Stainer-Scholte medium that was supplemented with 10 μL/mL of 100× nutrient complex for B. bronchiseptica and TSB w/0.3% glucose for S. aureus) for the strain. The compound being tested was then added at a predetermined concentration and then aliquoted (100 μL) into the wells of a 96-well PVC microtiter plate (wells not used for samples are filled with 100 μL of de-ionized water). Plates were then wrapped in GLAD Press n' Seal and incubated under stationary conditions at 37° C. After 24 hours, the media was discarded from the wells and the plates were washed thoroughly with tap water. Plates were then stained with 100 μL of 0.1% solution of crystal violet (CV) and then incubated at an ambient temperature for 30 minutes. Sample plates were then washed with tap water again and the remaining stain was solubilized with 200 μL of 95% ethanol. Biofilm inhibition was quantitated by measuring the OD540 for each well by transferring 125 μL of the solubilized CV stain into a polystyrene microtiter dish for analysis. Biofilm inhibition was quantified by measuring the OD540 of each well and calculated as a percentage of the control (no compound); a negative control lane wherein no biofilm was formed served as a background and was subtracted out.
(§3) Percent inhibition was then plotted against concentration in Prism 7. Each of the four experiments were plotted separately and analyzed by a normalized nonlinear regression. The IC50 values reported represent an arithmetic mean of the four IC50 values. Biofilm data represent four separate experiments, with each experiment performed in duplicate (average of 8 data points for each concentration tested, unless otherwise noted)

The subject of assay [2] is MRSA Strain 1770. Briefly: Biofilm inhibition assay (crystal violet). Type of assay: cell-based, Staphylococcus aureus. Particulars: for inhibition at 5 µM / inhibition at 40 µM: Staphylococcus aureus, read-out: % Biofilm Inhibition (5/40 μM). As to the method: as §1, §2, §3
Assay [3] relates to MRSA Strain 1685. Briefly: Biofilm inhibition assay (crystal violet). Particulars: Staphylococcus aureus, read-out: % Biofilm Inhibition (5/40 μM). In kind it is cell-based. On the procedure: as §1, §2, §3
Assay [4] has as its system MRSA Strain 43300. As to the kind of experiment: Biofilm inhibition assay (crystal violet). Particulars: Staphylococcus aureus, read-out: % Biofilm Inhibition (5/40 μM). In kind it is cell-based. As to the method: as §1, §2, §3
In assay [5] the test system is planktonic bacteria. As to the kind of experiment: Growth curve analysis. Type of assay: cell-based.
In assay [6] the test system is MRSA ATCC BAA-44. As to the kind of experiment: Biofilm dispersion assay (crystal violet, pre-formed biofilm). Type of assay: cell-based. Particulars: Staphylococcus aureus, Table 2.

Regarding `O=C1NC(C(Cl)(Cl)Cc2ccccc2)O/C1=C\c1ccc(C(F)(F)F)cc1` (stereo not drawn) [Compound 2, (Z)-2-(1,1-dichloro-2-phenylethyl)-5-(4-(trifluoromethyl)benzylidene)oxazolidin-4-one], the IC50 (usually the concentration at which inhibition is half-maximal) in assay [1] amounted to 1.4 µM; in assay [1] (Staphylococcus aureus) it was 1.2 µM. Further, the inhibition at 5 µM in assay [1] (Staphylococcus aureus) amounted to 82%; in assay [2] it was 3%; in assay [3], 19%; in assay [4], 41%. The “dose dependence of biofilm inhibition (in words)” value in assay [1] was “dose-dependent biofilm inhibition at concentrations well below their MIC”. The “biofilm inhibition activity (in words)” value in assay [2] is “virtually no activity”. Also, the inhibition at 40 µM is -16% in assay [2], 17% in assay [3], 63% in assay [4] and 69% in assay [6]. In addition, the “growth curve versus untreated control (in words)” value was “modest deviation from the untreated control” in assay [5] (1 μM) and “moderate growth inhibition in the first 8 hours” in assay [5] (5 μM).

As for `CCCCC(Cl)(Cl)C1NC(=O)/C(=C/c2ccc(C(F)(F)F)cc2)O1` (stereo not drawn) [Compound 1, (Z)-2-(1,1-dichloropentyl)-5-(4-(trifluoromethyl)benzylidene)oxazolidin-4-one], the IC50 in assay [1] was 1 µM; in assay [1] (Staphylococcus aureus) it was 0.78 µM. Further, the inhibition at 5 µM came out at 89% in assay [1] (Staphylococcus aureus), 49% in assay [2], 45% in assay [3] and 59% in assay [4]. The “dose dependence of biofilm inhibition (in words)” value in assay [1] is on record as “dose-dependent biofilm inhibition at concentrations well below their MIC”. For the same compound, the inhibition at 40 µM in assay [2] worked out at 66%; in assay [3], 66%; in assay [4] it was 54%; in assay [6], 87%. Moreover, the “growth curve versus untreated control (in words)” value in assay [5] (1 μM) and in assay [5] (5 μM) was “substantial inhibition of growth in the first 8 hours” each time.
